Literature values, collected in patent US20040142823A1, “Adjuvant compositions and pesticides” (priority 2003, published 2004).
Read-outs that look alike come from different tables or passages of the source.

CNC(=O)CSP(=S)(OC)OC [Cygon, dimethoate]
Time to lose 50 percent of pest control power (mixed in water of pH 9): 48 min | Time to lose 50 percent of pest control power (pH of 6): 720 min
